Source: patent US8951938B2, “Combinatorial rosamine library to detect cell-state switching” (New York University, priority 2007, dated 2015)
Entries after “also recorded” stand apart in the source; their conditions may differ.

Key:
RNA = test: Analyte screening of rosamine library, fluorescence response
Description: (§1) The rosamine derivative compounds were screened toward 47 different analytes that include proteins, polysaccharides, nucleic acids, and metal ions. The stock solution of each dye (50 μL) in HEPES (20 mM, pH=7.4) or PBS (20 mM, pH=7.4) was prepared, and diluted with the each analyte (50 μL, 1.0 mg/mL or 200 μM) in the same buffer solution. The final dye concentration varied from 0.5 μM to 10 μM. The fluorescence intensity fold changes of each dye in the presence of analytes were calculated by comparing the fluorescence intensity at the maximum emission wavelength with/without the analyte.

DNA = test: as above
Description: as §1

Compound	fluorescence response to RNA among 47 analytes (RNA)	fluorescence response to DNA among 47 analytes (DNA)
CC1=CC(C)(C)N(C)c2ccc3c(=O)c4ccc(N)cc4n(C)c3c21 [J]	selective response; also recorded: selective increase	
CCN(CCCN(C)C)c1ccc2c(=O)c3ccc(N)cc3oc2c1 [L, 3-Amino-6-[(3-dimethylamino-propyl)-ethyl-amino]-xanthen-9-one]		selective response; also recorded: selective increase
